{"source": "patent US20050049309A1", "about": "“Regulation of HIF protein levels via deubiquitination pathway” (priority 2003, published 2005)", "key": {"HIF-1α protein": {"tested_on": "HIF-1α protein", "conditions": "recent studies (literature); cited from earlier work"}, "[1]": {"tested_on": "deubiquitinase enzyme activity (HT-29 cell lysate) on polyubiquitinated HIF-1α", "type": "biochemical, human"}, "HIF-1α": {"tested_on": "HIF-1α", "type": "cell-based, human"}, "[2]": {"conditions": "cited from earlier work"}, "hypoxic cells": {"tested_on": "hypoxic cells", "conditions": "cited from earlier work"}}, "note": "Where a SMILES comes first, the peptide text is derived from it. [ ]: non-standard residue; d: D form. The star is where a group is joined. Nva = CCC[C@H](N)C(=O)O; Cbz = O=C(OCc1ccccc1)*", "data": [{"compound": "C=CCNC1=C2C[C@@H](C)C[C@H](OC)[C@H](O)[C@@H](C)/C=C(\\C)[C@H](OC(N)=O)[C@@H](OC)/C=C\\C=C(/C)C(=O)NC(=CC1=O)C2=O", "note": "[17-AAG, 17-allylamino-17-desmethoxygeldanamycin]", "values": [{"measurement": "HIF-1α protein in cell-lines lacking pVHL", "setting": "HIF-1α protein", "value": "promote the loss of HIF-1α protein"}]}, {"compound": "CCC[C@@H](C=O)NC(=O)[C@H](CC(C)C)NC(=O)[C@H](CC(C)C)NC(=O)OCc1ccccc1", "note": "[LLnV, N-carbobenzoxy-Leu-Leu-norvalinal] (Cbz-Leu-Leu-[Nva]-aldehyde)", "values": [{"measurement": "Deubiquitination of HIF-1α in vitro", "setting": "[1]", "value": "did not affect"}]}, {"compound": "C[C@@H]1C[C@@H]([C@H](O)CC2CC(=O)NC(=O)C2)C(=O)[C@@H](C)C1", "note": "[Cycloheximide, cycloheximide]", "values": [{"measurement": "Ubiquitination of HIF-1α with proteasome inhibited", "setting": "HIF-1α", "value": "no affect"}]}, {"compound": "O=C(O)CCCc1ccc(N(CCCl)OCCCl)cc1", "note": "[CHL-HD]", "values": [{"measurement": "In vivo toxicity", "setting": "[2]", "value": "minimal in vivo toxicity"}, {"measurement": "Toxicity with reducing enzymes under hypoxia", "setting": "hypoxic cells", "value": "greater toxicity"}]}]}
